This assay addresses T1, CFTR (Homo sapiens, UniProt P13569, DEL508-508).
T1 construct: endogenous in cells; host or cells: primary human bronchial epithelial cells from CF subjects (F508del/MF-HBE), differentiated at air-liquid interface
As to the kind of experiment: HBE2 assay: Ussing chamber assay of CFTR-mediated short-circuit currents. The assay is classed as cell-based. The note with it: F508del/MF-HBE cells, with 44 nM potentiator, 18-24 hours, 20% human serum; for Emax: read-out: HBE2 Max activity (%). The essentials:
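F508del/MF-HBE cultured >14 days at air-liquid interface, mounted in Ussing chambers; transepithelial short-circuit current recorded under voltage clamp (Vhold=0 mV) at 37 °C. CFTR-mediated ISC (μA/cm^2) taken as peak forskolin response relative to steady-state current after inhibition; corrector activity assessed this way.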

37 molecules from patent US20240150377A1, “MODULATORS OF CYSTIC FIBROSIS TRANSMEMBRANE CONDUCTANCE REGULATOR” (VERTEX PHARMACEUTICALS INCORPORATED, priority 2020, published 2024) can be followed below.

T1 sequence (P13569 with tags, fused parts or gaps DEL508-508): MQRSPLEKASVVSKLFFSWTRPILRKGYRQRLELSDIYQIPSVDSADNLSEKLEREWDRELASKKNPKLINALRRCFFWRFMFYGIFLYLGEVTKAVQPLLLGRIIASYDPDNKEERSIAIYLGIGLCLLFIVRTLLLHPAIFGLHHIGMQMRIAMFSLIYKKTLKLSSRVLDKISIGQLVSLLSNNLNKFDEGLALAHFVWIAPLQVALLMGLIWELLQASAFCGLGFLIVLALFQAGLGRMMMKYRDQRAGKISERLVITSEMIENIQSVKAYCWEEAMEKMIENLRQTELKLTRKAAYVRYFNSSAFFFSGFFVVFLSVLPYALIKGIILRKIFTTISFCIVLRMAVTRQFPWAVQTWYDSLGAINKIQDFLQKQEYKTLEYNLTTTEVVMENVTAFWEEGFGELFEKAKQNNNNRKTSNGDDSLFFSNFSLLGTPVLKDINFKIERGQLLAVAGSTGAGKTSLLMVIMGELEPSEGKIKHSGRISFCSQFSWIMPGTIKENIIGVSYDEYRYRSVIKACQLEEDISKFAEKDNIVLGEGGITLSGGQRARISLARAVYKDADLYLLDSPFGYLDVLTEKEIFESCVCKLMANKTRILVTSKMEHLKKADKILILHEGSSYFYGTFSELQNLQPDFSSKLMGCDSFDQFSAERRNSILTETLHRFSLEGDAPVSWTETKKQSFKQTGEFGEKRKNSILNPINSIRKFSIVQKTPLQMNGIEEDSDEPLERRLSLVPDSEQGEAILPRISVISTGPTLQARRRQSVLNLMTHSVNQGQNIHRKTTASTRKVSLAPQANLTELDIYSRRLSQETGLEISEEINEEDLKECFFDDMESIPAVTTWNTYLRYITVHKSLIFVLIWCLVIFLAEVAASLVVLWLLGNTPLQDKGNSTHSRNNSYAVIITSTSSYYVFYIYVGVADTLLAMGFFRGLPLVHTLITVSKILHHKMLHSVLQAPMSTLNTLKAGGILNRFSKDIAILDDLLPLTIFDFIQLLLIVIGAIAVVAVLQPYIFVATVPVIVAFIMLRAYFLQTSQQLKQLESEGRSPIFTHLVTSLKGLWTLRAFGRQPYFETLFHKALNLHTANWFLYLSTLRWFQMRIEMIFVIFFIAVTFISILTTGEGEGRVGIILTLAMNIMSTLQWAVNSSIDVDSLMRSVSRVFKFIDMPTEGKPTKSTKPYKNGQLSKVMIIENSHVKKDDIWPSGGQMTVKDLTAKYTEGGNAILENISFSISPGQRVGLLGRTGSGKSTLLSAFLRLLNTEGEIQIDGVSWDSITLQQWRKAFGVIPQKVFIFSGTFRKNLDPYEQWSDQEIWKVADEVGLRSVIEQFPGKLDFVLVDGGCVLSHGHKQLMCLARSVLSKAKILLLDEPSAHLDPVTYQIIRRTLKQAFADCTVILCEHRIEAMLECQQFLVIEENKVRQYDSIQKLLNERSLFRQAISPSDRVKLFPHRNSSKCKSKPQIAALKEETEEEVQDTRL

Consider `COCCCN(C)c1cncc(CN2C(=O)c3cccc(c3)S(=O)(=O)Nc3nc(cc(-c4c(C)cccc4C)n3)OC[C@H]2CC(C)(C)C)n1` [Compound 1693], for which the “HBE2 Activity at 3 μM (%)” value (3 μM) is “+++ (+++ is >60+)”.

Consider `Cc1cccc(C)c1-c1cc2nc(n1)NS(=O)(=O)c1cccc(c1)C(=O)N(Cc1cncc(N3CC[C@H]4C3CC(=O)N4C)n1)[C@H](CC(C)(C)C)CO2` (stereo in doubt) [Compound 1640], for which, under “3 μM”, the “HBE2 Activity at 3 μM (%)” value was “+++ (+++ is >60+)”.

As for `Cc1cc(C)c(-c2cc3nc(n2)NS(=O)(=O)c2cccc(c2)C(=O)N(Cc2cncc(N(C)C4CCC4)n2)[C@H](CC(C)(C)C)CO3)c(C)c1` [Compound 1729], the “HBE2 Activity at 3 μM (%)” value (3 μM corrector) was “+++ (+++ is >60+)”. As a reminder, the EC50 is the concentration at which the effect is half-maximal. As to `Cc1cccc(C)c1-c1cc2nc(n1)NS(=O)(=O)c1cccc(c1)C(=O)N(Cc1cncc(N(C)C3CCC3)n1)[C@H](CC(C)C)CO2` [Compound 1671], the 50% effective concentration (EC50) was below 1000 nM and the Emax was above 60%. The “HBE2 Activity at 3 μM (%)” value (3 μM) is “+++ (+++ is >60+)”. Consider `Cc1cccc(C)c1-c1cc2nc(n1)NS(=O)(=O)c1cccc(c1)C(=O)N(Cc1cc(NC(=O)OC(C)(C)C)cc(N(C)C3CCC3)n1)[C@H](CC(C)(C)C)CO2` [Compound 1929], for which, under “3 μM corrector”, the “HBE2 Activity at 3 μM (%)” value was “+++ (+++ is >60+)”. Take `Cc1cccc(C)c1-c1cc2nc(n1)NS(=O)(=O)c1cccc(c1)C(=O)N(Cc1cncc(N(C)[C@H]3C[C@H](F)C3)n1)[C@H](CCC(C)(C)C)CO2` [Compound 1849]: the “HBE2 Activity at 3 μM (%)” value (3 μM corrector) is recorded as “+++ (+++ is >60+)”. Regarding `Cc1cccc(C)c1-c1cc2nc(n1)NS(=O)(=O)c1cccc(c1)C(=O)N(Cc1cncc(N(C)C3CCC3)n1)[C@H](CC1CC(C)(C)C1)CO2` (stereo in doubt) [Compound 1340, 12-[[6-[cyclobutyl(methyl)amino]pyrazin-2-yl]methyl]-11-[(3,3-dimethylcyclobutyl)methyl]-6-(2,6-dimethylphenyl)-2,2-dioxo-9-oxa-2λ^6-thia-3,5,12,19-tetrazatricyclo[12.3.1.14,8]nonadeca-1(18),4(19),5,7,14,16-hexaen-13-one], under “3 μM corrector”, the “HBE2 Activity at 3 μM (%)” value was “++ (++ is 30-60%)”. On the same count and under the same terms, as for `Cc1cccc(C)c1-c1cc2nc(n1)NS(=O)(=O)c1cccc(c1)C(=O)N(Cc1cnc3cc(C(C)C)n(C)c3n1)[C@H](COC1CC1)CO2` [Compound 1889], the entry is “+++ (+++ is >60+)”. As for `Cc1cccc(C)c1-c1cc2nc(n1)NS(=O)(=O)c1cccc(c1)C(=O)N(Cc1cncc(N3CCCC3C)n1)[C@H](C1CC(C)(C)C1)CO2` (single isomer, unassigned) [Compound 1337], the “HBE2 Activity at 3 μM (%)” value (3 μM corrector) was “++ (++ is 30-60%)”.

Consider `Cc1cccc(C)c1-c1cc2nc(n1)NS(=O)(=O)c1cccc(c1)C(=O)N(Cc1cncc(N(C)C3CCC3)n1)[C@]1(CCC(C)(C)C1)CO2` (single isomer, unassigned) [Compound 1325, 12-[[6-[cyclobutyl(methyl)amino]pyrazin-2-yl]methyl]-6-(2,6-dimethylphenyl)-1′,1′-dimethyl-2,2-dioxo-spiro[9-oxa-2λ^6-thia-3,5,12,19-tetrazatricyclo[12.3.1.14,8]nonadeca-1(18),4(19),5,7,14,16-hexaene-11,3′-cyclopentane]-13-one], for which the “HBE2 Activity at 3 μM (%)” value (3 μM corrector) is on record as “+++ (+++ is >60+)”. Take `Cc1cccc(C)c1-c1cc2nc(n1)NS(=O)(=O)c1cccc(c1)C(=O)N(Cc1cncc(N(C)CC(C)C)n1)[C@H](CCC(C)(C)C)CO2` [Compound 1791]: the “HBE2 Activity at 3 μM (%)” value (3 μM corrector) is on record as “+++ (+++ is >60+)”. For `Cc1cccc(C)c1-c1cc2nc(n1)NS(=O)(=O)c1cccc(c1)C(=O)N(Cc1cncc(N3CC(=O)N(C)C[C@H]3C)n1)[C@H](CC(C)(C)C)CO2` [Compound 1644], the “HBE2 Activity at 3 μM (%)” value (3 μM) was “+++ (+++ is >60+)”. Consider `CCN(c1cncc(CN2C(=O)c3cccc(c3)S(=O)(=O)Nc3nc(cc(-c4c(C)cccc4C)n3)OC[C@H]2CCC(C)(C)C)n1)C1CCC1` [Compound 1808], for which the “HBE2 Activity at 3 μM (%)” value (3 μM corrector) is recorded as “+++ (+++ is >60+)”. With `Cc1cccc(C)c1-c1cc2nc(n1)NS(=O)(=O)c1cccc(c1)C(=O)N(Cc1cnc3cc(C(C)C)n(C)c3n1)[C@H](COC(C)C)CO2` [Compound 1919], where the note is “3 μM corrector”, the “HBE2 Activity at 3 μM (%)” value is “+++ (+++ is >60+)”.

In the case of `Cc1cccc(C)c1-c1cc2nc(n1)NS(=O)(=O)c1cccc(c1)C(=O)N(Cc1cncc(N3CCC[C@H]4CC[C@H]43)n1)[C@H](CCC(C)C)CO2` (stereo in doubt) [Compound 1746], the “HBE2 Activity at 3 μM (%)” value (3 μM corrector) is “+++ (+++ is >60+)”. As to `CC(=O)N(C)CCN(C)c1cncc(CN2C(=O)c3cccc(c3)S(=O)(=O)Nc3nc(cc(-c4c(C)cccc4C)n3)OC[C@H]2CC(C)(C)C)n1` [Compound 1661], for the setting “3 μM”, the “HBE2 Activity at 3 μM (%)” value is “+++ (+++ is >60+)”. `Cc1cccc(C)c1-c1cc2nc(n1)NS(=O)(=O)c1cccc(c1)C(=O)N(Cc1cncc(N(C)[C@H]3C[C@H](C)C3)n1)[C@H](CCC(C)(C)C)CO2` [Compound 1885]: the “HBE2 Activity at 3 μM (%)” value (3 μM corrector) is “+++ (+++ is >60+)”. As for `Cc1cccc(C)c1-c1cc2nc(n1)NS(=O)(=O)c1cccc(c1)C(=O)N(Cc1ncc(OC(C)C)cn1)[C@H](CC1CCC1)[C@@H](C)O2` [Compound 1568], the “HBE2 Activity at 3 μM (%)” value (3 μM) was “+++ (+++ is >60+)”. For `CCN(c1cncc(CN2C(=O)c3cccc(c3)S(=O)(=O)Nc3nc(cc(-c4c(C)cccc4C)n3)OC[C@H]2CCC(C)(C)C)n1)C(C)C` [Compound 1850], the “HBE2 Activity at 3 μM (%)” value (3 μM corrector) is “+++ (+++ is >60+)”. `Cc1cccc(C)c1-c1cc2nc(n1)NS(=O)(=O)c1cccc(c1)C(=O)N(Cc1cncc(N(C)C3CCC3)n1)[C@H](c1ccccc1)CO2` [Compound 1731]: the “HBE2 Activity at 3 μM (%)” value (3 μM corrector) is “+++ (+++ is >60+)”.

Consider `Cc1cccc(C)c1-c1cc2nc(n1)NS(=O)(=O)c1cccc(c1)C(=O)N(Cc1cncc(N3C[C@H]4CCCC[C@H]43)n1)[C@H](CC(C)(C)C)CO2` [Compound 1800], for which, where the note is “3 μM corrector”, the “HBE2 Activity at 3 μM (%)” value was “+++ (+++ is >60+)”. As to `Cc1cccc(C)c1-c1cc2nc(n1)NS(=O)(=O)c1cccc(c1)C(=O)N(Cc1cncc(N(C)C3CCC3)n1)[C@H](CC1CC1)CO2` [Compound 1670], the EC50 is below 1000 nM and the Emax is above 60%. The “HBE2 Activity at 3 μM (%)” value (3 μM) is listed as “+++ (+++ is >60+)”. Consider `Cc1cccc(C)c1-c1cc2nc(n1)NS(=O)(=O)c1cccc(c1)C(=O)N(Cc1cncc(N(C)[C@H]3C[C@@H](F)C3)n1)[C@H](CCC1CC1)CO2` [Compound 1915], for which the “HBE2 Activity at 3 μM (%)” value (3 μM corrector) is “+++ (+++ is >60+)”. For `Cc1cccc(C)c1-c1cc2nc(n1)NS(=O)(=O)c1cccc(c1)C(=O)N(Cc1cncc(N(C)CCO)n1)[C@H](CC(C)(C)C)CO2` [Compound 1665], the “HBE2 Activity at 3 μM (%)” value (3 μM) is recorded as “+++ (+++ is >60+)”. Turning to `CCn1c(C(C)C)cc2ncc(CN3C(=O)c4cccc(c4)S(=O)(=O)Nc4nc(cc(-c5c(C)cccc5C)n4)OC[C@H]3COC(C)C)nc21` [Compound 1933], the “HBE2 Activity at 3 μM (%)” value (3 μM corrector) is “+++ (+++ is >60+)”.

As for `Cc1cccc(C)c1-c1cc2nc(n1)NS(=O)(=O)c1cccc(c1)C(=O)N(Cc1cnc(N(C)C3CCC3)cn1)[C@H](CC(C)(C)C)CO2` [Compound 1612], the “HBE2 Activity at 3 μM (%)” value (3 μM) is “+++ (+++ is >60+)”. Turning to `Cc1cccc(C)c1-c1cc2nc(n1)NS(=O)(=O)c1cccc(c1)C(=O)N(Cc1cncc(N(C)C(C)C)n1)[C@H](CC1(C)CCC1)CO2` [Compound 1745], where the note is “3 μM corrector”, the “HBE2 Activity at 3 μM (%)” value is on record as “+++ (+++ is >60+)”. Take `Cc1cccc(C)c1-c1cc2nc(n1)NS(=O)(=O)c1cccc(c1)C(=O)N(Cc1cncc(N3C(=O)OC[C@H]3C)n1)[C@H](CC(C)(C)C)CO2` [Compound 1653]: where the note is “3 μM”, the “HBE2 Activity at 3 μM (%)” value is recorded as “+++ (+++ is >60+)”. For `Cc1cccc(C)c1-c1cc2nc(n1)NS(=O)(=O)c1cccc(n1)C(=O)N(Cc1cncc(N(C)C3CCC3)n1)[C@H](CC(C)(C)C)CO2` [Compound 1832], the “HBE2 Activity at 3 μM (%)” value (3 μM corrector) is “+++ (+++ is >60+)”. Regarding `Cc1cccc(C)c1-c1cc2nc(n1)NS(=O)(=O)c1cccc(c1)C(=O)N(Cc1cncc(N(C)CC(C)C)n1)[C@H](CC1(C)CC1)CO2` [Compound 1711], the EC50 was below 1000 nM and the Emax was above 60%. Also, the “HBE2 Activity at 3 μM (%)” value (3 μM) is reported as “+++ (+++ is >60+)”. For the molecule `Cc1cccc(C)c1-c1cc2nc(n1)NS(=O)(=O)c1cccc(c1)C(=O)N(Cc1cncc(N3CCCC3c3ccnn3C)n1)[C@H](CC(C)(C)C)CO2` (stereo partly shown) [Compound 1606], the “HBE2 Activity at 3 μM (%)” value (3 μM) was “+++ (+++ is >60+)”. Turning to `Cc1cccc(C)c1-c1cc2nc(n1)NS(=O)(=O)c1cccc(c1)C(=O)N(Cc1cncc(N3CCC[C@H]3C3CC3)n1)[C@H](CCC(C)(C)C)CO2` [Compound 1813], the “HBE2 Activity at 3 μM (%)” value (3 μM corrector) is “+++ (+++ is >60+)”. As to `Cc1cccc(C)c1-c1cc2nc(n1)NS(=O)(=O)c1cccc(c1)C(=O)N(Cc1ncc(OC(C)C)cn1)[C@H]([C@@H](C)C1CC1)CO2` (stereo in doubt) [Compound 1559], under “3 μM”, the “HBE2 Activity at 3 μM (%)” value is listed as “+++ (+++ is >60+)”. `Cc1cccc(C)c1-c1cc2nc(n1)NS(=N)(=O)c1cccc(c1)C(=O)N(Cc1ncc(OC(C)C)cn1)[C@H](CC(C)(C)C)CO2` (stereo partly shown) [Compound 1575]: the “HBE2 Activity at 3 μM (%)” value (3 μM) was “+++ (+++ is >60+)”. For `CCC(C)CN(C)c1cncc(CN2C(=O)c3cccc(c3)S(=O)(=O)Nc3nc(cc(-c4c(C)cccc4C)n3)OC[C@H]2CC(C)(C)C)n1` (stereo partly shown) [Compound 1727], the “HBE2 Activity at 3 μM (%)” value (3 μM corrector) is on record as “+++ (+++ is >60+)”. With `CCN(CC1CC1)c1cncc(CN2C(=O)c3cccc(c3)S(=O)(=O)Nc3nc(cc(-c4c(C)cccc4C)n3)OC[C@H]2CCC(C)(C)C)n1` [Compound 1809], the “HBE2 Activity at 3 μM (%)” value (3 μM corrector) is given as “+++ (+++ is >60+)”. For the molecule `Cc1cccc(C)c1-c1cc2nc(n1)NS(=O)(=O)c1cccc(c1)C(=O)N(Cc1cncc(N(C)C3CCC3)n1)[C@H](C(C)C)CO2` [Compound 1690], where the note is “3 μM”, the “HBE2 Activity at 3 μM (%)” value was “+++ (+++ is >60+)”.
